{"source": "paper PMC4308718", "about": "(Nature Communications, 2015)", "molecules": {"B1": {"name": "AtPHT4;4 (Arabidopsis thaliana) (protein)", "chain": "MALGGLISNRNFGSFIGSGNGCQRLGKSGAEVSKLFPNALLCRNHQPLQASLHHESGHMRRSFGCFLQPRMDSVIRFRNSIKINRSRAYYKSEESDITEGVVPSADGSAEAILVEGNLQNASPWWQQFPRRWVIVLLCFSSFLLCNMDRVNMSIAILPMSQEYNWSSATVGLIQSSFFWGYLLTQILGGIWADKFGGKVVLGFGVVWWSFATIMTPIAARLGLPFLLVVRAFMGIGEGVAMPAMNNMLSKWIPVSERSRSLALVYSGMYLGSVTGLAFSPMLITKFGWPSVFYSFGSLGSIWFLLWLKFAYSSPKDDPDLSEEEKKVILGGSKPREPVTVIPWKLILSKPPVWALIISHFCHNWGTFILLTWMPTYYNQVLKFNLTESGLLCVLPWLTMAVFANIGGWIADTLVSRGLSITNVRKIMQSIGFLGPAFFLSQLSHVKTPAMAVLCMACSQGSDAFSQSGLYSNHQDIGPRYAGVLLGLSNTAGVLAGVFGTAATGYILQRGSWDDVFKVAVALYLIGTLVWNLFATGEKILD"}}, "key": {"AtPHT4;4": {"biological_target": "T1, AtPHT4;4 (Arabidopsis thaliana, UniProt Q8GX78)", "T1 construct": "gene PHT4; cDNA from ATG; His-tag and soluble alpha-helix protein (beta) at both ends, beta-pET-28a(+)-beta; E. coli C43(DE3); purified by Ni-NTA; proteoliposomes", "T1 sequence (Q8GX78 1-541)": "B1 chain", "experiment": "inhibition of […]-ascorbate uptake into proteoliposomes, […] min", "assay_type": "biochemical", "conditions": "1 and 10 μM inhibitor; 100 μM ascorbate; 2 μM valinomycin; pH 7.0; 27 °C"}, "AtPHT4;6": {"biological_target": "T2, AtPHT4;6 (Arabidopsis thaliana, UniProt Q9FKV1)", "T2 construct": "gene ANTR5", "T2 sequence (Q9FKV1 whole entry)": "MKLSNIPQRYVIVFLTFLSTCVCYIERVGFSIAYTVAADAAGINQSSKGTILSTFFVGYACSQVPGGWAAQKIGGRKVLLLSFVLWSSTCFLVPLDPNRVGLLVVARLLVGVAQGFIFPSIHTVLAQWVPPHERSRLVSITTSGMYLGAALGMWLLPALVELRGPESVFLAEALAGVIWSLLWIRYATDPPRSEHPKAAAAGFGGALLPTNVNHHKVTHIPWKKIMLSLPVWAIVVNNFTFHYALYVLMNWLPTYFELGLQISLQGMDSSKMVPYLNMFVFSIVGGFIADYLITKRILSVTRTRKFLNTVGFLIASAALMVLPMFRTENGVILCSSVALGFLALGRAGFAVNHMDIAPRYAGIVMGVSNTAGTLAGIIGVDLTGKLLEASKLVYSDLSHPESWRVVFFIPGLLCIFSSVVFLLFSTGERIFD", "conditions": "labelled compound (32P); 100 μM phosphate; 0.1 M sodium acetate; pH 7.0"}, "AtPHT4;5": {"biological_target": "T3, AtPHT4;5 (Arabidopsis thaliana, UniProt Q3E9A0)", "T3 construct": "gene ANTR6", "T3 sequence (Q3E9A0 whole entry)": "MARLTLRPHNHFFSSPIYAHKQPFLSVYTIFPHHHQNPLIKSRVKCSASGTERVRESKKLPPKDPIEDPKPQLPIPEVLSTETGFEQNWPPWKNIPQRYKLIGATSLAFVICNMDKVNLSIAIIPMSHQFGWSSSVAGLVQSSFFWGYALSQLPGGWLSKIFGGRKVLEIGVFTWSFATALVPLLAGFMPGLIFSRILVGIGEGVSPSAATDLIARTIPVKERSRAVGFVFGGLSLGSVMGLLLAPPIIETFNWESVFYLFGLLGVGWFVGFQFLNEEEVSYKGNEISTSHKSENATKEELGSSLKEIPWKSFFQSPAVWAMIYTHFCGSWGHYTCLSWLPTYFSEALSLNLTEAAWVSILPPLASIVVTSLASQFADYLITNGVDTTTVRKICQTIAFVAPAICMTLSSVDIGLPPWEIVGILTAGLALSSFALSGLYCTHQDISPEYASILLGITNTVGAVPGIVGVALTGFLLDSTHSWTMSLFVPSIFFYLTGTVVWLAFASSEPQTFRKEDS", "conditions": "labelled compound (32P); 100 μM phosphate; 0.1 M sodium acetate; pH 7.0"}, "AtPHT4;3": {"biological_target": "T4, AtPHT4;3 (Arabidopsis thaliana, UniProt Q66GI9)", "T4 construct": "gene ANTR4", "T4 sequence (Q66GI9 whole entry)": "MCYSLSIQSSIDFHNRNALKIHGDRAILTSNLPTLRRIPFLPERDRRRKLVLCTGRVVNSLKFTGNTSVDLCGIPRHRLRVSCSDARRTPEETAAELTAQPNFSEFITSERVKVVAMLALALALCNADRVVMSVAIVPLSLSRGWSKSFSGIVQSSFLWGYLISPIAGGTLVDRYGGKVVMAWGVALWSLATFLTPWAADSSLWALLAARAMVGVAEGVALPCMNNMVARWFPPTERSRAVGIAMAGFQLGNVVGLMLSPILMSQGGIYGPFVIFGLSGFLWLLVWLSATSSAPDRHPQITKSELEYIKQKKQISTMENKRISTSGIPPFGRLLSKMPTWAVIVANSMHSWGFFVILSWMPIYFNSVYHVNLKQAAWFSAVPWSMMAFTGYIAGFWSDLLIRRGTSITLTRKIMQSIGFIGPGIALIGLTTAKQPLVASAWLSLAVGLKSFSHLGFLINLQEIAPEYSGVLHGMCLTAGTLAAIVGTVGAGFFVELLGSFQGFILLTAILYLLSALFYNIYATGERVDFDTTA", "conditions": "labelled compound (32P); 100 μM phosphate; 0.1 M sodium acetate; pH 7.0"}, "purified protein": {"substrate": "O=C1O[C@H]([C@@H](O)CO)C(O)=C1O", "experiment": "purified protein", "conditions": "labelled compound (14C), valinomycin-induced inside-positive membrane potential, 4 mM KCl, pH 7.0, 27 °C"}}, "data": [{"molecule": "O=S(=O)(O)c1cc(N=C=S)ccc1/C=C/c1ccc(N=C=S)cc1S(=O)(=O)O", "note": "[4,4′-diisothiocyano-2,2′-stilbenedisulphonic acid]", "values": [{"measurement": "inhibition of 14C-ascorbate uptake into proteoliposomes, 1 min", "setting": "AtPHT4;4", "value": "typical inhibitors of mammalian SLC17 family transporters, inhibited ascorbate uptake"}]}, {"molecule": "Cc1cc(-c2ccc(/N=N/c3ccc4c(S(=O)(=O)O)cc(S(=O)(=O)O)c(N)c4c3O)c(C)c2)ccc1/N=N/c1ccc2c(S(=O)(=O)O)cc(S(=O)(=O)O)c(N)c2c1O", "note": "[Evans blue]", "values": [{"measurement": "inhibition of 14C-ascorbate uptake into proteoliposomes, 1 min", "setting": "AtPHT4;4", "value": "typical inhibitors of mammalian SLC17 family transporters, inhibited ascorbate uptake"}]}, {"molecule": "O=P(O)(O)O", "note": "[inorganic phosphate]", "values": [{"measurement": "Na+-driven 32P-phosphate uptake into proteoliposomes, 2 min", "setting": "AtPHT4;6", "value": "Na^+/Pi transport activity was detected in proteoliposomes containing all of these transporters"}, {"measurement": "Na+-driven 32P-phosphate uptake into proteoliposomes, 2 min", "setting": "AtPHT4;5", "value": "Na^+/Pi transport activity was detected in proteoliposomes containing all of these transporters"}, {"measurement": "Na+-driven 32P-phosphate uptake into proteoliposomes, 2 min", "setting": "AtPHT4;3", "value": "Na^+/Pi transport activity was detected in proteoliposomes containing all of these transporters"}]}, {"molecule": "B1", "values": [{"measurement": "Km", "setting": "purified protein", "value": 1200, "unit": "µM"}]}]}
